# From US12383619B2, “Use of glutamate modulating agents with immunotherapies to treat cancer” (Biohaven Therapeutics Ltd., priority 2016, dated 2025)
# Read-outs that look alike come from different tables or passages of the source.
# What was measured:
# GL261 cells = experiment: Orthotopic GL261 glioma model, survival of mice; format: in vivo, C57BL/6J mice
# Protocol: In this Example, the effects of the combination of a glutamate modulator, BHV-4157, in combination with an immunotherapeutic agent, anti-PD-1, were compared to either alone in a glioma model substantially as decribed in Zeng, J., et al., Int J Radiat Oncol Biol Phys., 2013 Jun. 1; 86(2):343-349, portions of which are reproduced below.
# GL261-Luc cells are grown in Dulbecco's Modified Eagle Medium (DMEM)+10% fetal bovineserum+1% penicillinstreptomycin at 37° C. in a humidified incubator maintained at 5% CO2 and 5% O2 (Gibco).
# Female C57BL/6J mice (Harlan), 4 to 6 weeks old or 6 to 8 weeks old, are used for orthotopic glioma experiments as described in Sonabend A M, Velicu S, Ulasov IV, et al. A safety and efficacy study of local delivery of interleukin 12 transgene by PPC polymer in a model of experimental glioma. Anticancer Drugs. 2008;19:133-142. To establish syngeneic gliomas, 130,000 GL261-Luc cells are stereotactically injected in a 1 μl volume into the left striatum over 1 minute into the following coordinates: 1 mm anterior, 1 mm lateral from bregma, and 3 mm deep from the cortical surface. Tumor burden is monitored by luciferase imaging on days 7, 21 and 35 after implantation, and the mice are randomly allocated into treatment arms based on tumor radiance, so that the average tumor radiance in each group is roughly equivalent. The animals are euthanized when they show predetermined signs of neurologic deficits (failure to ambulate, weight loss >20% body mass, lethargy, hunched posture). […] Each arm has 6 to 10 mice in survival experiments. All experiments are repeated at least in triplicate.
# Hamster antimurine PD-1 monoclonal antibody producing hybridoma G4 are used to produce antibodies as described in Hirano F, Kaneko K, Tamura H, et al. Blockade of B7-H1 and PD-1 by monoclonal antibodies potentiates cancer therapeutic immunity. Cancer Res. 2005;65:1089-1096.
# Female C57BL/6J mice, 4 to 6 weeks old, were implanted intrancranially in the left striatum with 130,000 GL261 cells each. The mice were housed and maintained according to the institutional Animal Care and Use Committee protocol in the Johns Hopkins University Animal Facility. The mice were imaged by bioluminescent IVIS® imaging (Perkin Elmer) at day 7, 21, and 35 to assess tumor burden and randomly assigned to groups, 10 mice per arm, as follows: • 1. Control • 2. anti-PD-1 • 3. Trigriluzole 15 mg/kg • 4. Trigriluzole 30 mg/kg • 5. Trigriluzole 45 mg/kg • 6. anti-PD-1+Trigriluzole 15 mg/kg • 7. anti-PD-1+Trigriluzole 30 mg/kg • 8. anti-PD-1+Trigriluzole 45 mg/kg
# Day 0 represents the date of intracranial implantation. Control arm 1 received no treatment. Control arm 2 received αPD-1 alone at a dose of 200 μg/animal via intraperitoneal injection on days 10, 12, 14. Control arms 3, 4 and 5 received BHV-4157 alone at doses of 15, 30 and 45 mg/kg (respectively) via intraperitoneal injection daily beginning on day 10. Control arms 6, 7 and 8 received BHV-4157 at doses of 15, 30 and 45 mg/kg (respectively) via intraperitoneal injection daily beginning on day 10 and αPD-1 at a dose of 200 μg/animal via intraperitoneal injection on days 10, 12, 14.
# Animals were euthanized according to humane endpoints including central nervous system disturbances, hunched posture, lethargy, weight loss, and inability to ambulate.
# advanced melanoma = conditions: cited from earlier work; for Response duration: Median in months: patients with confirmed complete or partial response; for OS: Hazard ratio / PFS: Hazard ratio: pembrolizumab compared to ipilimumab
# advanced NSCLC = conditions: cited from earlier work; for OS: Hazard ratio / PFS: Hazard ratio: pembrolizumab compared to docetaxel
# [1] = test system: advanced (unresectable or metastatic) melanoma; conditions: cited from earlier work; for median OS: 3 mg/kg monotherapy group
# [2] = TPS 1% (entire population), 2 mg/kg every 3 weeks
# [3] = TPS 1% (entire population), 10 mg/kg every 3 weeks
# [4] = TPS≥50% (section head prints 'TPS'), 2 mg/kg every 3 weeks
# [5] = TPS≥50% (section head prints 'TPS'), 10 mg/kg every 3 weeks
# [6] = patients who required re-treatment, ipilimumab monotherapy group
compound,measurement,setting,value
"CN(CC(=O)Nc1nc2ccc(OC(F)(F)F)cc2s1)C(=O)CNC(=O)CN [BHV-4157, 2-Amino-N-{[methyl({[6-(trifluoromethoxy)-1,3-benzothiazol-2-yl]carbamoyl}methyl)carbamoyl]methyl}acetamide]",Percent survival of mice after tumor implantation,"GL261 cells; Arm 3: 15 mg/kg i.p. daily from day 10, day 0",100%
same,Percent survival of mice after tumor implantation,"GL261 cells; Arm 3: 15 mg/kg i.p. daily from day 10, day 21",90%
same,Percent survival of mice after tumor implantation,"GL261 cells; Arm 3: 15 mg/kg i.p. daily from day 10, day 22",80%
same,Percent survival of mice after tumor implantation,"GL261 cells; Arm 3: 15 mg/kg i.p. daily from day 10, day 23",70%
same,Percent survival of mice after tumor implantation,"GL261 cells; Arm 3: 15 mg/kg i.p. daily from day 10, day 24",50%
same,Percent survival of mice after tumor implantation,"GL261 cells; Arm 3: 15 mg/kg i.p. daily from day 10, day 26",30%
same,Percent survival of mice after tumor implantation,"GL261 cells; Arm 3: 15 mg/kg i.p. daily from day 10, day 27",20%
same,Percent survival of mice after tumor implantation,"GL261 cells; Arm 3: 15 mg/kg i.p. daily from day 10, day 28",10%
same,Percent survival of mice after tumor implantation,"GL261 cells; Arm 3: 15 mg/kg i.p. daily from day 10, day 36",0%
same,Percent survival of mice after tumor implantation,"GL261 cells; Arm 4: 30 mg/kg i.p. daily from day 10, day 0",100%
same,Percent survival of mice after tumor implantation,"GL261 cells; Arm 4: 30 mg/kg i.p. daily from day 10, day 21",90%
same,Percent survival of mice after tumor implantation,"GL261 cells; Arm 4: 30 mg/kg i.p. daily from day 10, day 23",70%
same,Percent survival of mice after tumor implantation,"GL261 cells; Arm 4: 30 mg/kg i.p. daily from day 10, day 24",50%
same,Percent survival of mice after tumor implantation,"GL261 cells; Arm 4: 30 mg/kg i.p. daily from day 10, day 26",30%
same,Percent survival of mice after tumor implantation,"GL261 cells; Arm 4: 30 mg/kg i.p. daily from day 10, day 29",20%
same,Percent survival of mice after tumor implantation,"GL261 cells; Arm 4: 30 mg/kg i.p. daily from day 10, day 34",10%
same,Percent survival of mice after tumor implantation,"GL261 cells; Arm 4: 30 mg/kg i.p. daily from day 10, day 60",10%
same,Percent survival of mice after tumor implantation,"GL261 cells; Arm 5: 45 mg/kg i.p. daily from day 10, day 0",100%
same,Percent survival of mice after tumor implantation,"GL261 cells; Arm 5: 45 mg/kg i.p. daily from day 10, day 21",90%
same,Percent survival of mice after tumor implantation,"GL261 cells; Arm 5: 45 mg/kg i.p. daily from day 10, day 22",80%
same,Percent survival of mice after tumor implantation,"GL261 cells; Arm 5: 45 mg/kg i.p. daily from day 10, day 23",70%
same,Percent survival of mice after tumor implantation,"GL261 cells; Arm 5: 45 mg/kg i.p. daily from day 10, day 24",60%
same,Percent survival of mice after tumor implantation,"GL261 cells; Arm 5: 45 mg/kg i.p. daily from day 10, day 25",50%
same,Percent survival of mice after tumor implantation,"GL261 cells; Arm 5: 45 mg/kg i.p. daily from day 10, day 27",20%
same,Percent survival of mice after tumor implantation,"GL261 cells; Arm 5: 45 mg/kg i.p. daily from day 10, day 28",10%
same,Percent survival of mice after tumor implantation,"GL261 cells; Arm 5: 45 mg/kg i.p. daily from day 10, day 29",0%
Pembrolizumab: humanized monoclonal IgG4 antibody directed against human cell surface receptor PD-1,Best overall response: ORR %,advanced melanoma; 10 mg/kg every 2 weeks,34%
same,Complete response %,advanced melanoma; 10 mg/kg every 2 weeks,5%
same,OS: % of patients with event,advanced melanoma; 10 mg/kg every 2 weeks,(30%)
same,OS: Median in months,advanced melanoma; 10 mg/kg every 2 weeks,Not reached
same,OS: Number of patients with event,advanced melanoma; 10 mg/kg every 2 weeks,85
same,PFS: % of patients with event,advanced melanoma; 10 mg/kg every 2 weeks,(56%)
same,PFS: Median in months,advanced melanoma; 10 mg/kg every 2 weeks,5.5 months
same,PFS: Number of patients with event,advanced melanoma; 10 mg/kg every 2 weeks,157
same,Partial response %,advanced melanoma; 10 mg/kg every 2 weeks,29%
same,Response duration: % ongoing,advanced melanoma; 10 mg/kg every 2 weeks,89%
same,Response duration: Median in months,advanced melanoma; 10 mg/kg every 2 weeks,8.3 months
same,OS: Hazard ratio,advanced melanoma; 10 mg/kg every 2 weeks,0.63
same,PFS: Hazard ratio,advanced melanoma; 10 mg/kg every 2 weeks,0.58
same,Best overall response: ORR %,advanced melanoma; 10 mg/kg every 3 weeks,33%
same,Complete response %,advanced melanoma; 10 mg/kg every 3 weeks,6%
same,OS: % of patients with event,advanced melanoma; 10 mg/kg every 3 weeks,(33%)
same,OS: Median in months,advanced melanoma; 10 mg/kg every 3 weeks,Not reached
same,OS: Number of patients with event,advanced melanoma; 10 mg/kg every 3 weeks,92
same,PFS: % of patients with event,advanced melanoma; 10 mg/kg every 3 weeks,(57%)
same,PFS: Median in months,advanced melanoma; 10 mg/kg every 3 weeks,4.1 months
same,PFS: Number of patients with event,advanced melanoma; 10 mg/kg every 3 weeks,157
same,Partial response %,advanced melanoma; 10 mg/kg every 3 weeks,27%
same,Response duration: % ongoing,advanced melanoma; 10 mg/kg every 3 weeks,97%
same,Response duration: Median in months,advanced melanoma; 10 mg/kg every 3 weeks,Not reached
same,OS: Hazard ratio,advanced melanoma; 10 mg/kg every 3 weeks,0.69
same,PFS: Hazard ratio,advanced melanoma; 10 mg/kg every 3 weeks,0.58
same,PFS: Number of patients with event,"advanced NSCLC; TPS 1% (entire population), 2 mg/kg every 3 weeks, BICR, RECIST 1.1",266
same,OS: % of patients with event,advanced NSCLC; [2],(50%)
same,OS: Number of patients with event,advanced NSCLC; [2],172
same,Overall response rate: ORR %,advanced NSCLC; [2],18%
same,PFS: % of patients with event,advanced NSCLC; [2],(77%)
same,PFS: Median in months,advanced NSCLC; [2],3.9 months
same,Response duration: % ongoing,advanced NSCLC; [2],73%
same,Response duration: Median in months,advanced NSCLC; [2],Not reached
same,OS: Hazard ratio,advanced NSCLC; [2],0.71
same,PFS: Hazard ratio,advanced NSCLC; [2],0.88
same,PFS: Number of patients with event,"advanced NSCLC; TPS 1% (entire population), 10 mg/kg every 3 weeks, BICR, RECIST 1.1",255
same,OS: % of patients with event,advanced NSCLC; [3],(45%)
same,OS: Number of patients with event,advanced NSCLC; [3],156
same,Overall response rate: ORR %,advanced NSCLC; [3],18%
same,PFS: % of patients with event,advanced NSCLC; [3],(74%)
same,PFS: Median in months,advanced NSCLC; [3],4.0 months
same,Response duration: % ongoing,advanced NSCLC; [3],72%
same,Response duration: Median in months,advanced NSCLC; [3],Not reached
same,OS: Hazard ratio,advanced NSCLC; [3],0.61
same,PFS: Hazard ratio,advanced NSCLC; [3],0.79
same,Overall response rate: ORR %,"advanced NSCLC; TPS≥50% (section head prints 'TPS'), 2 mg/kg every 3 weeks, all partial responses",30%
same,OS: % of patients with event,advanced NSCLC; [4],(42%)
same,OS: Median in months,advanced NSCLC; [4],14.9 months
same,OS: Number of patients with event,advanced NSCLC; [4],58
same,PFS: % of patients with event,advanced NSCLC; [4],(64%)
same,PFS: Median in months,advanced NSCLC; [4],5.2 months
same,PFS: Number of patients with event,advanced NSCLC; [4],89
same,Response duration: % ongoing,advanced NSCLC; [4],76%
same,Response duration: Median in months,advanced NSCLC; [4],Not reached
same,OS: Hazard ratio,advanced NSCLC; [4],0.54
same,PFS: Hazard ratio,advanced NSCLC; [4],0.58
same,Overall response rate: ORR %,"advanced NSCLC; TPS≥50% (section head prints 'TPS'), 10 mg/kg every 3 weeks, all partial responses",29%
same,OS: % of patients with event,advanced NSCLC; [5],(40%)
same,OS: Median in months,advanced NSCLC; [5],17.3 months
same,OS: Number of patients with event,advanced NSCLC; [5],60
same,PFS: % of patients with event,advanced NSCLC; [5],(64%)
same,PFS: Median in months,advanced NSCLC; [5],5.2 months
same,PFS: Number of patients with event,advanced NSCLC; [5],97
same,Response duration: % ongoing,advanced NSCLC; [5],75%
same,Response duration: Median in months,advanced NSCLC; [5],Not reached
same,OS: Hazard ratio,advanced NSCLC; [5],0.50
same,PFS: Hazard ratio,advanced NSCLC; [5],0.59
Ipilimumab: fully human IgG1 monoclonal antibody that blocks the binding of CTLA-4 to its B7 ligands,Best overall response: ORR %,advanced melanoma; 3 mg/kg every 3 weeks,12%
same,Complete response %,advanced melanoma; 3 mg/kg every 3 weeks,1%
same,OS: % of patients with event,advanced melanoma; 3 mg/kg every 3 weeks,(40%)
same,OS: Median in months,advanced melanoma; 3 mg/kg every 3 weeks,Not reached
same,OS: Number of patients with event,advanced melanoma; 3 mg/kg every 3 weeks,112
same,PFS: % of patients with event,advanced melanoma; 3 mg/kg every 3 weeks,(68%)
same,PFS: Median in months,advanced melanoma; 3 mg/kg every 3 weeks,2.8 months
same,PFS: Number of patients with event,advanced melanoma; 3 mg/kg every 3 weeks,188
same,Partial response %,advanced melanoma; 3 mg/kg every 3 weeks,10%
same,Response duration: % ongoing,advanced melanoma; 3 mg/kg every 3 weeks,88%
same,Response duration: Median in months,advanced melanoma; 3 mg/kg every 3 weeks,Not reached
same,median OS,[1]; patients with CR or PR,not reached
same,median OS,[1]; patients with PD,8 months
same,median OS,[1]; patients with SD,22 months
same,OS at 1 year % (95% CI),"[1]; 3 mg/kg monotherapy, n = 137","46% (37.0, 54.1)"
same,OS at 2 years % (95% CI),"[1]; 3 mg/kg monotherapy, n = 137","24% (16.0, 31.5)"
same,Overall survival: Median Months,"[1]; 3 mg/kg monotherapy, n = 137",10 months
same,hazard ratio (HR) for comparison of OS,[1]; ipilimumab monotherapy vs gp100,0.66
same,BORR,[1]; [6],38%
same,disease control rate (DCR) (CR+PR+SD),[1]; [6],75%
